Test results reported in patent publication US20060035810A1, “Regulation of ins(3456)p4 signalling by a reversible kinase phosphatase and methods and compositions related thereto” (priority 2002, published 2006).

Legend:
[1] = test system: insulin granules in pancreatic β-cells; assay: CCCP-mediated de-acidification of insulin granules, LSG fluorescence; assay type: cell-based, mouse; conditions: DIDS blockade of Cl− conductance, CCCP
Description: FIG. 7A, Representative confocal images of LSG fluorescence immediately before (zero) and 60 s after perfusion of cells with intracellular buffer supplemented with 100 μM of the protonophore, CCCP, in the absence or presence of 10 μM Ins(3,4,5,6)P4. FIG. 7B, Representative time-courses for changes in LSG-fluorescence ([F/F0] as % of zero time) immediately after establishing a standard whole-cell configuration as in panel A, with intracellular medium (containing 0.4 μM [Ca^2+]free except where “no calcium” is indicated; see Methods) plus 100 μM CCCP, together with either 0 (“control”) or 10 μM Ins(3,4,5,6)P4. FIG. 7C, Mean (±SE) fluorescence changes (n=4-6), during the 60 s that followed establishment of the standard whole-cell configuration, for cells perfused with intracellular medium supplemented with inositol phosphates as indicated at the base of the bar graph ([…]).
The inositol phosphates used in this study were all purchased from CellSignals Inc (Lexington, Ky.). Insulin granule pH were monitored by combining the patch-clamp technique with confocal imaging. Pancreatic β-cells, isolated and cultured on glass coverslips for 2-24 h, were voltage clamped at −70 mV, as previously described (B9). LysoSensor-Green™ DND-189 (1 μM; Molecular Probes, Leiden, The Netherlands) was added during the last 30 min of cell culture and was also included in the extracellular buffer (B9) that continuously perfused the experimental chamber. All LSG experiments were performed at 20° C. to prevent exocytosis that otherwise interfered with the optical measurements (15). LSG fluorescence was excited using the 488 nm-line of a Zeiss 510 confocal microscope. The emitted light was collected with a 63×/1.3 NA oil objective and a >505 nm filter. Laser scanning was performed with low pixel resolution (128×128) and with 6 s intervals to minimize photo-bleaching. After gigaseal formation, it was ascertained that LSG fluorescence was stable for at least 30 s before the experiment commenced. The intracellular electrode solution contained: 125 mM K-glutamate, 10 mM KCl, 1 0 mM NaCl, 1 mM MgCl2, 5 mM HEPES, 3 mM Mg-ATP, 0.1 mM cAMP, 10 mM EGTA and 7 mM CaCl2 (˜0.4 μM free [Ca^2+]I; pH 7.2 with KOH). In some experiments, marked “no calcium”, there was no added Ca^2+, and the concentration of EGTA was 50 μM. Whole-cell capacitance measurements (at 33° C.) were made with the cells clamped at −70 mV, and the standard whole-cell configuration was established at t=0. Capacitance recordings were made using an EPC-7 patch-clamp amplifier equipped with the software Pulse (version 8.4 and later) and the X-chart extension (HEKA Elektronik, Lambrecht/Pfalz, Germany) (B9). […]

[2] = test system: insulin granules in pancreatic β-cells; assay: Insulin granule acidification, LSG fluorescence with patch-clamp and confocal imaging; assay type: cell-based, mouse; conditions: DIDS 100 μM in bath solution 30 min prior to patching
Description: FIG. 6. Ins(3,4,5,6)P4 inhibits acidification of insulin granules in pancreatic β-cells. FIG. 6A, Representative time-courses for intragranular acidification, monitored by increased fluorescence of LSG before and after establishment of the standard whole-cell configuration (see arrow) and the effect of perfusion of intracellular medium (containing 0.4 μM [Ca^2+]free except where “no calcium” is indicated; see Methods) plus either 0 (“control”), 1 or 10 μM Ins(3,4,5,6)P4. FIG. 6B, Mean (±SE) fluorescence changes (n-5-11), during the 60 s that followed establishment of the standard whole-cell configuration, for cells perfused with inositol phosphates as indicated at the base of the bar graph. Where indicated, DIDS (100 μM) were added to the bath solution 30 min prior to patching the cells. Statistical significance was evaluated by Student's unpaired t-test (* P<0.01).
The inositol phosphates used in this study were all purchased from CellSignals Inc (Lexington, Ky.). Insulin granule pH were monitored by combining the patch-clamp technique with confocal imaging. Pancreatic β-cells, isolated and cultured on glass coverslips for 2-24 h, were voltage clamped at −70 mV, as previously described (B9). LysoSensor-Green™ DND-189 (1 μM; Molecular Probes, Leiden, The Netherlands) was added during the last 30 min of cell culture and was also included in the extracellular buffer (B9) that continuously perfused the experimental chamber. All LSG experiments were performed at 20° C. to prevent exocytosis that otherwise interfered with the optical measurements (15). LSG fluorescence was excited using the 488 nm-line of a Zeiss 510 confocal microscope. The emitted light was collected with a 63×/1.3 NA oil objective and a >505 nm filter. Laser scanning was performed with low pixel resolution (128×128) and with 6 s intervals to minimize photo-bleaching. After gigaseal formation, it was ascertained that LSG fluorescence was stable for at least 30 s before the experiment commenced. The intracellular electrode solution contained: 125 mM K-glutamate, 10 mM KCl, 1 0 mM NaCl, 1 mM MgCl2, 5 mM HEPES, 3 mM Mg-ATP, 0.1 mM cAMP, 10 mM EGTA and 7 mM CaCl2 (˜0.4 μM free [Ca^2+]I; pH 7.2 with KOH). In some experiments, marked “no calcium”, there was no added Ca^2+, and the concentration of EGTA was 50 μM. Whole-cell capacitance measurements (at 33° C.) were made with the cells clamped at −70 mV, and the standard whole-cell configuration was established at t=0. Capacitance recordings were made using an EPC-7 patch-clamp amplifier equipped with the software Pulse (version 8.4 and later) and the X-chart extension (HEKA Elektronik, Lambrecht/Pfalz, Germany) (B9).

[3] = target: T1, Ins(1,3,4,5,6)P5 1-phosphatase activity of Ins(3,4,5,6)P4 kinase (Homo sapiens, UniProt Q13572); assay: Inositol phosphate phosphatase activity assay with ADP (HPLC); assay type: biochemical; conditions: 5 mM ADP, trace amounts of substrate
T1 construct: made in house; host or cells: E. coli
T1 sequence (Q13572 1-414): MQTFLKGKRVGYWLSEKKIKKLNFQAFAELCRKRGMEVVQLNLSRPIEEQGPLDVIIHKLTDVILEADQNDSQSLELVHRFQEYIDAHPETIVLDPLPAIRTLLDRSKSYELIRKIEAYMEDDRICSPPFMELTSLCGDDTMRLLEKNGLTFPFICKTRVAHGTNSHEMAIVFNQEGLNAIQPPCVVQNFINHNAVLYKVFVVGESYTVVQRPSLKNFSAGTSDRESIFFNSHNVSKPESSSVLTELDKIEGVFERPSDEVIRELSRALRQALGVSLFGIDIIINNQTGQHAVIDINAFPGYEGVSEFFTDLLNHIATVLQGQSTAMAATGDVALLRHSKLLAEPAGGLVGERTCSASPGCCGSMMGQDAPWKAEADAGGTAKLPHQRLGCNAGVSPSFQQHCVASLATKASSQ
Description: Ins(3,4,5,6)P4 kinase (0.4 μg) was incubated for 30 min in 100 μl phosphatase assay buffer (see Methods) either with (closed circles) or without (open circles) 5 mM ADP plus trace-amounts of either [^3H]Ins(1,3,4,5,6)P5 (panel A) [^3H]Ins(1,3,4,6)P4 (panel B), or [^3H]Ins(1,3,4,5)P4 (panel C). Samples were analyzed by HPLC (see Methods). The elution positions of Ins(1,3,4)P3 and Ins(3,4,5,6)P4 were verified with genuine standards. The elution positions of Ins(1,3,4,6)P4 (106 min, panel B) and of Ins(1,3,4,5)P4 (110 min, panel C) exclude these as products of InsP5 dephosphorylation (panel A).
Additional incubations were performed with 5 μM [^3H]Ins(1,3,4)P3 (approx. 1200 d.p.m.) plus either no Ins(1,3,4,5,6)P5 (open circles) or 5 μM non-radiolabeled Ins(1,3,4,5,6)P5 (closed circles); these reactions were assayed by HPLC (Synchropak Q100 column) and the InsP4 region of the chromatogram is shown in Panel B.
(§1) Inositol phosphate phosphatase activity was assayed in buffer containing 100 mM KCl, 20 mM HEPES pH 7.2, 5 mM ADP, 6 mM MgSO4, 0.3 mg/ml bovine serum albumin. Assays were acid-quenched, neutralized and analyzed by HPLC using a Synchropak Q100 columm (Caffrey et al., “Expanding Coincident Signaling by PTEN through its Inositol 1,3,4,5,6-Pentakisphosphate 3-phosphatase Activity,” FEBS Lett 499: 6-10 (2001)); 1 ml fractions were collected for 70 min., followed by 0.5 ml fractions. Inositol phosphate kinase activity was assayed in buffer containing 100 mM KCl, 20 mM HEPES pH 7.2, 5 mM ATP, 10 mM phosphocreatine, 6 mM MgSO4, 10 μg/ml creatine phosphokinase (Calbiochem), 0.3 mg/ml bovine serum albumin. Some assays were acid-quenched and analyzed by HPLC using a Synchropak Q100 column. Other reactions were heat-inactivated (95° C., 3 min) and analyzed by a metal dye detection, HPLC method (Mayr, “A novel metal-dye detection sysytem permits picomolar-range h.p.l.c. analysis of inositol polyphosphates from non-radioactively labelled cell or tissue specimens,” Biochem J 254: 585-591 (1988); Adelt et al., “Enzyme-assisted total synthesis of the optical antipodes D-myo-inositol 3,4,5-trisphosphate and D-myo-inositol 1,5,6-trisphosphate: aspects of their structure-activity relationship to biologically active inositol phosphates,” J Med Chem 42: 1262-1273 (1999)).

[4] = target: T2, Recombinant human Ins(3,4,5,6)P4 1-kinase (Homo sapiens, UniProt Q13572); assay: Inositol phosphate kinase activity assay (HPLC); assay type: biochemical
T2 construct: made in house; host or cells: E. coli
T2 sequence (Q13572 1-414): T1 sequence (Q13572 1-414)
Description: as §1
Activity of 3.4 ug of inositol 3,4,5,6-tetrakisphosphate 1-kinase was assayed for 4 hr. at 37° C. in 200 μl buffer containing 100 mM KCl, 20 mM HEPES pH 7.2, 5 mM ATP, 10 mM phosphocreatine, 6 mM MgSO4, 10 μg/ml creatine phosphokinase (Calbiochem), 0.3 mg/ml bovine serum albumin and 50 uM of either inositol 3,4,5-trisphosphate, 4,5,6-trisphosphate or inositol 3,5,6-trisphosphate. Reactions were heat-inactivated (95° C., 3 min) and analyzed by a metal dye detection, HPLC method.
[…] (Manassas, Va.) supplied the CFPAC-1 cells and T84 cells. Recombinant human Ins(3,4,5,6)P4 1-kinase was expressed in E. coli and purified (Yang et al., “Multitasking in Signal Transduction by a Promiscuous Human Ins(3,4,5,6)P4 1-Kinase/Ins(1,3,4)P3 5/6-Kinase,” Biochem J 351: 551-555 (2000)). Non-radiolabeled Ins(1,3,4)P3 and Ins(1,3,4,5,6)P5 were purchased from CellSignals Inc (Lexington, Ky.). The details of the synthesis of non-radiolabeled Ins(3,4,5)P3, Ins(3,5,6)P3, Ins(4,5,6)P3 and Ins(3,4,6)P3 (as sodium salts) will be published separately by S.-K. C. Ins(3,4,6)P3 was also prepared by a different synthetic route (Mills et al., “Synthesis of D- and L-myo-inositol 1,4,6-trisphosphate, regioisomers of a ubiquitous second messenger,” J Org Chem 61: 8980-8987 (1996)). [^3H]Ins(1,3,4,5,6)P5 was prepared as previously described (Zhang et al., “The Transcriptional Regulator, Arg82, is a Hybrid Kinase with both Monophosphoinositol- and Diphosphoinositol-Polyphosphate Synthase Activity,” FEBS Lett 494: 208-212 (2001)). [^3H]Ins(1,3,4)P3 was prepared from [^3H]Ins(1,3,4,5)P4 (New England Nuclear) using recombinant Ins(1,4,5)P3/Ins(1,3,4,5)P4 5-phosphatase (Erneux et al., “Production of recombinant human brain type I inositol-1,4,5-trisphosphate 5-phosphatase in Escherichia coli. Lack of phosphorylation by protein kinase C,” Eur J Biochem 234: 598-602 (1995)). [^3H]Ins(1,3,4)P3 was converted to [^3H]Ins(1,3,4,6)P4 using Ins(1,3,4)P3 6-kinase activity (Yang et al., “Multitasking in Signal Transduction by a Promiscuous Human Ins(3,4,5,6)P4 1-Kinase/Ins(1,3,4)P3 5/6-Kinase,” Biochem J 351: 551-555 (2000)). [^3H]Ins(3,4)P2 was prepared by alkaline phosphatase attack on [^3H]Ins(1,3,4)P3 in 20 mM glycine (pH 9.0 with KOH). [^3H]Ins(1,4)P2 was purchased from New England Nuclear.

| product of ADP-dependent dephosphorylation [3] | whether the enzyme phosphorylates the inositol phosphate [4] | SMILES | effect on loss of H+ from the granules [1] | effect on granule acidification [2] |
| --- | --- | --- | --- | --- |
| – | – | O=S(=O)(O)c1cc(N=C=S)ccc1C=Cc1ccc(N=C=S)cc1S(=O)(=O)O [DIDS, 4,4′-diisothiocyanostilbene-2,2′-disulfonic acid] | inhibited | inhibited |
| dephosphorylated to Ins(1,3,4)P3 | does not phosphorylate | O=P(O)(O)O[C@@H]1C(O)[C@H](OP(=O)(O)O)[C@@H](OP(=O)(O)O)C(O)[C@H]1OP(=O)(O)O (stereo partly shown) [Ins(1,3,4,6)P4] | – | – |
